Assay results taken from patent US9884806B2, “Cyclic vinylogous amides as bromodomain inhibitors” (ICAHN SCHOOL OF MEDICINE AT MOUNT SINAI, priority 2013, dated 2018).

Tests used:
[1] = molecular target: T1, first bromodomain (BrD1) of human BRD4 (Homo sapiens, UniProt O60885); test: Fluorescence anisotropy binding assay (competition with FITC-labeled MS417 probe); conditions: FITC-MS417 probe 80 nM, PBS pH 7.4, 1 hour, 25° C., read-out: BRD4_1 IC50
T1 construct: the first bromodomain (BrD1) of human BRD4; poly-His (cleaved yes); made in house
Description: Fluorescence Anisotropy Binding Assay
Expression and purification of the first bromodomain (BrD1) of human BRD4 in poly-His tag form was performed using a procedure described in the literature [See Zeng et al. Structure 16, 643-652 (2008) and Zhang et al., J Biol Chem 287, 28840-28851 (2012).] The protein was purified by using affinity chromatography on a nickel-IDA column (Invitrogen), followed by the removal of poly-His tag by thrombin cleavage.
Binding affinity of the newly synthesized compounds to the BRD4 BrD1 was assessed in a fluorescence anisotropy assay using a fluorescein isothiocyanate (FITC)-labeled MS417 as an assay probe (Zhang et al. 2008 op.cit.). Competition binding was performed with a BrD protein (0.25 to 1 μM) and the fluorescent probe (80 nM), and increasing concentration of unlabeled competing ligand in a PBS buffer (pH 7.4) in total volume of 80 μL. Measurements were obtained after 1 hour incubation of the fluorescent ligand and the protein at 25° C. with Safire 2 microplate reader (Tecan). In the assay, fluorescent ligand concentration was ≦2Kd, and protein concentration was set at which 50-80% of fluorescent ligand is bound. Dissociation constant of a competing ligand was calculated with the correction to Cheng-Prussoff equation introduced by Nicolovska-Coleska and colleagues [Nikolovska-Coleska, Z. et al., Anal Biochem 332, 261-273 (2004). Assuming one-site competitive binding model, the equation used to calculate Ki's from IC50 values recovered from fitting data using Prism:
[formula] where [I50] is the concentration of free inhibitor at 50% inhibition, [L50], the concentration of free labeled ligand at 50% inhibition, and [P0], concentration of free protein at 0% inhibition. Note that Kd for each protein-probe pair is the limit of resolvable Ki in a competition assay.

BRD4_2 = molecular target: T2, BRD4_2 (Homo sapiens, UniProt O60885); test: Fluorescence anisotropy binding assay (competition with FITC-labeled MS417 probe), BRD4_2; conditions: FITC-MS417 probe 80 nM, PBS pH 7.4, 1 hour, 25° C.
T2 construct: contains two tandem bromodomains (BrD1 and BrD2)

| IC50 [1] | IC50 (BRD4_2) | Compound |
| --- | --- | --- |
| 1 to 10 µM | > 10 µM | CC1=C(Nc2cc(C(=O)Nc3cc(C(=O)O)ccc3C)ccc2Cl)CCCC1=O [Example 04-96, 3-(4-Chloro-3-((2-methyl-3-oxocyclohex-1-en-1-yl)amino)benzamido)-4-methylbenzoic acid] |
| 1 to 10 µM | 1 to 10 µM | COc1cc(C(=O)Nc2ccccc2C)ccc1NC1=C(C)C(=O)CC1 [Example 04-60, 3-methoxy-4-((2-methyl-3-oxocyclopent-1-en-1-yl)amino)-N-(o-tolyl)benzamide] |
| > 10 µM | > 10 µM | COc1ccc(NC(=O)c2ccc(Cl)c(NC3=C(C#N)C(=O)CCC3)c2)c(C)c1 [Example 05-36, 4-chloro-3-((2-cyano-3-oxocyclohex-1-en-1-yl)amino)-N-(4-methoxy-2-methylphenyl)benzamide] |
| 1 to 10 µM | 1 to 10 µM | COc1ccc(NC(=O)c2ccc(NC3=C(C)C(=O)CC3)c(C)c2)cc1 [Example 04-83, N-(4-methoxyphenyl)-3-methyl-4-((2-methyl-3-oxocyclopent-1-en-1-yl)amino)-benzamide] |
| 1 to 10 µM | 1 to 10 µM | COc1cc(C(=O)Nc2ccccc2)ccc1NC1=C(C)C(=O)CC1 [Example 04-56, 3-methoxy-4-((2-methyl-3-oxocyclopent-1-en-1-yl)amino)-N-phenylbenzamide] |
| 1 to 10 µM | 1 to 10 µM | COc1cccc(NC(=O)c2ccc(NC3=C(C)C(=O)CC3)c(C)c2)c1 [Example 04-82, N-(3-methoxyphenyl)-3-methyl-4-((2-methyl-3-oxocyclopent-1-en-1-yl)amino)-benzamide] |
| > 10 µM | > 10 µM | N#CC1=C(Nc2cccc(Cl)c2)CCCC1=O [Example 05-32, 2-((3-chlorophenyl)amino)-6-oxocyclohex-1-enecarbonitrile] |
| 1 to 10 µM | 1 to 10 µM | COc1ccc(NC(=O)c2ccc(NC3=C(C)C(=O)CC3)cc2OC)cc1 [Example 04-71, 2-methoxy-N-(4-methoxyphenyl)-4-((2-methyl-3-oxocyclopent-1-en-1-yl)amino)-benzamide] |
| 1 to 10 µM | 1 to 10 µM | COc1cc(C(=O)NC2CCCCC2)ccc1NC1=C(C)C(=O)CC1 [Example 04-54, N-cyclohexyl-3-methoxy-4-((2-methyl-3-oxocyclopent-1-en-1-yl)amino)-benzamide] |
| < 1 µM | > 10 µM | COc1cc(NC2=C(C)C(=O)CC2)ccc1C(=O)Nc1cccc2ccccc12 [Example 04-67, 2-methoxy-4-((2-methyl-3-oxocyclopent-1-en-1-yl)amino)-N-(naphthalen-1-yl)benzamide] |
| 1 to 10 µM | 1 to 10 µM | CC1=C(Nc2ccc(N)cc2Cl)CCC1=O [Example 02-14, 3-((4-amino-2-chlorophenyl)amino)-2-methylcyclopent-2-enone] |
| 1 to 10 µM | 1 to 10 µM | COc1cc(NC2=C(C)C(=O)CC2)ccc1C(=O)Nc1ccc(C)cc1 [Example 04-74, 2-methoxy-4-((2-methyl-3-oxocyclopent-1-en-1-yl)amino)-N-(p-tolyl)benzamide] |
| 1 to 10 µM | > 10 µM | CC1=C(Nc2cccc(C(=O)Nc3ccc(C)cc3)c2)CCC1=O [Example 04-7] |
| 1 to 10 µM | 1 to 10 µM | COc1ccc(NC(=O)c2ccc(NC3=C(C)C(=O)CC3)c(OC)c2)cc1 [Example 04-59, 3-methoxy-N-(4-methoxyphenyl)-4-((2-methyl-3-oxocyclopent-1-en-1-yl)amino)-benzamide] |
| < 1 µM | 1 to 10 µM | COc1ccccc1NC(=O)c1ccc(NC2=C(C)C(=O)CCC2)c(Cl)c1 [Example 05-14, 3-chloro-N-(2-methoxyphenyl)-4-((2-methyl-3-oxocyclohex-1-en-1-yl)amino)benzamide] |
| 1 to 10 µM | > 10 µM | COC(=O)c1cccc(NC2=C(C)C(=O)CC2)c1 [Example 01-4] |

| IC50 [1] | IC50 (BRD4_2) | Compound |
| --- | --- | --- |
| 1 to 10 µM | 1 to 10 µM | CNC(=O)c1ccc(NC2=C(C)C(=O)CC2)cc1OC [Example 04-65] |
| 1 to 10 µM | > 10 µM | CC1=C(Nc2ccc(C(=O)Nc3ccccc3C)c(Cl)c2)CCC1=O [Example 04-49, 2-chloro-4-((2-methyl-3-oxocyclopent-1-en-1-yl)amino)-N-(o-tolyl)benzamide] |
| 1 to 10 µM | 1 to 10 µM | CC1=C(Nc2cccc(-c3cn(-c4ccccc4)nn3)c2)CCC1=O [Examples 06-2, 2-methyl-3-((3-(1-phenyl-1H-1,2,3-triazol-4-yl)phenyl)amino)cyclopent-2-enone] |
| > 10 µM | > 10 µM | CC1=C(N[C@H]2CC[C@@H](C(=O)Nc3ccc(C)cc3)CC2)CCC1=O [Example 04-40] |
| > 10 µM | > 10 µM | CC1=C(Nc2ccc(C(=O)Nc3cccc(C)c3)c(Cl)c2)CCC1=O [Example 04-50, 2-chloro-4-((2-methyl-3-oxocyclopent-1-en-1-yl)amino)-N-(m-tolyl)benzamide] |
| 1 to 10 µM | 1 to 10 µM | COc1ccccc1NC(=O)c1ccc(NC2=C(C)C(=O)CC2)c(OC)c1 [Example 04-57, 3-methoxy-N-(2-methoxyphenyl)-4-((2-methyl-3-oxocyclopent-1-en-1-yl)amino)-benzamide] |
| > 10 µM | > 10 µM | CC1=C(N[C@H]2CC[C@@H](C(=O)Nc3ccccc3)CC2)CCC1=O [Example 04-36, (1S,4S)-4-((2-methyl-3-oxocyclopent-1-en-1-yl)amino)-N-phenylcyclohexane-carboxamide] |
| 1 to 10 µM | > 10 µM | COc1cccc(NC(=O)c2ccc(NC3=C(C)C(=O)CC3)cc2)c1 [Example 03-11, N-(3-methoxyphenyl)-4-((2-methyl-3-oxocyclopent-1-en-1-yl)amino)benzamide] |
| < 1 µM | > 10 µM | CC1=C(Nc2cccc(NC(=O)/C=C\C(=O)O)c2Cl)CCCC1=O [Example 05-85, (Z)-4-((2-chloro-3-((2-methyl-3-oxocyclohex-1-en-1-yl)amino)phenyl)-amino)-4-oxobut-2-enoic acid] |
| > 10 µM | > 10 µM | CC1=C(N[C@H]2CC[C@H](C(=O)Nc3ccccc3)CC2)CCC1=O [Example 04-26, (1R,4R)-4-((2-methyl-3-oxocyclopent-1-en-1-yl)amino)-N-phenylcyclohexane-carboxamide] |
| < 1 µM | 1 to 10 µM | COc1ccc(NC(=O)c2ccc(NC3=C(C)C(=O)CC3)c(Br)c2)cc1 [Example 05-18, 3-bromo-N-(4-methoxyphenyl)-4-((2-methyl-3-oxocyclopent-1-en-1-yl)amino)benzamide] |
| 1 to 10 µM | > 10 µM | CNC(=O)c1ccc(NC2=C(C)C(=O)CC2)c(C)c1 [Example 04-77, N,3-dimethyl-4-((2-methyl-3-oxocyclopent-1-en-1-yl)amino)benzamide] |
| 1 to 10 µM | 1 to 10 µM | CC1=C(Nc2cccc(C(=O)Nc3cccc4ccccc34)c2)CCC1=O [Example 04-2] |
| > 10 µM | > 10 µM | CC1=C(Nc2ccc(S(N)(=O)=O)cc2)CCC1=O [Example 01-6] |
| 1 to 10 µM | > 10 µM | CC1=C(Nc2cccc(C(=O)Nc3cccc(C)c3)c2)CCC1=O [Example 04-6] |
